Holding throughout (format): in vivo, rat
Assay [1] concerns corticospinal tract (CST) axons. Description: BDA anterograde tracing of CST fibers from the undamaged hemisphere into the denervated side of the spinal cord after stroke. How it is done:
All procedures were carried out in accordance with NIH Guidelines with the approval of Children's Hospital Animal Care and Use Committee. Unilateral in-farcts were induced in the sensorimotor cortex of adult Sprague-Dawley rats (275-300 g; Charles River Laboratories, Wilmington, Mass.) using the photothrombotic model of focal ischemia (Markgraf et al., 1993). Briefly, rats were anesthetized with a combination of ketamine (75 mg/kg) and Domitor (medetomidine; 0.5 mg/kg) and a 15 mm skin incision was made at the midline rostral to the posterior suture. A craniotomy was performed over the sensorimotor cortex using a hand-held drill to open a window that spanned medio-laterally between the sagittal sinus and temporal ridge, and rostro-caudally between Bregma +2.5 mm and Bregma −3.5 mm. The photosensitive dye Rose Bengal was injected into the femoral vein, and a fiber-optic cable connected to a xenon light source was centered over the craniotomy, focusing light directly on the exposed region of the brain for 30 minutes. A green filter fitted over the bulb restricted illumination to ˜525 nm, a wavelength that excites Rose Bengal and causes it to release free radical species. The subsequent damage to endothelial cells in exposed portions of the cortical vasculature causes platelet aggregation, resulting in severe focal ischemia. […] Control animals were generated using the same surgical procedure but without photo-activation of Rose Bengal. Animals with strokes were randomly assigned to receive a continuous infusion of either saline (0.9%, Baxter Scientific; n=12), inosine (50 mM in saline, Sigma-Aldrich Co., St. Louis, Mo.; n=12), NEP1-40 (500 μM in 2.5% DMSO/97.5% saline; n=12), or inosine +NEP1-40 (n=12) into the cisterna magna using osmotic minipumps (0.25 μl/h, Alzet model 2004, Durect Corpora-tion, Palo Alto, Calif.). In addition to these, a separate set of animals with the same 4 groups (n=12 in each) was created for a long-term behavioral study. Because CSF drug concentrations presumably require several hours to achieve steady-state levels when delivered via slow-releasing osmotic pumps, all animals received a 25 μl intraventricular bolus of the appropriate agent prior to pump placement. Pumps were tucked between the shoulder blades and infusion needles were secured onto the cranium with a silicon-based glue. The incision was closed with silk sutures and cleaned with betadine and ethanol pads. For 72 hours following surgery, animals received twice-daily, subcu-taneous injections of Buprenex (buprenorphine; Reckitt Benkiser Pharmaceuticals Inc., Richmond, Va.) for pain management.
In groups treated for four weeks after stroke, animals were re-anesthetized, the infusion needle and pump were removed, and a craniotomy was performed over the uninjured SMA. The anterograde tracer bioti-nylated dextran amine (BDA: Molecular Probes: 10% wt/vol in sterile saline) was injected stereotaxically at depths of 0.5, 1.0, and 2.0 mm below the cortical surface at 18 standardized points distributed over the sensorimotor cortex (70 nl per injection; Nano-ject, Drummond Scientific, Broomall, Pa.). Two weeks later, animals were anesthetized and perfused transcardially with 0.9% saline followed by 4% paraformaldehyde. The brain and spinal cord were dissected and post-fixed overnight in 4% paraformaldehyde, followed by 10% and 30% sucrose solutions over the next few days. Tissue was em-bedded in OCT Tissue Tek Medium (Sakura Finetek USA Inc., CA) and frozen on dry ice. Forty micron free-floating sections were cut in the coronal plane on a Frigo-Jung 8500 cryostat. Free-floating spinal cord sections were used to detect crossing fibers using avidin-biotin complex conjugated to horseradish peroxidase (Vectastain ABC Kit; Vector Laboratories), followed by Vector SG (Vector Laboratories) as a chromagen. Sections were mounted on pre-coated slides and lightly counterstained with eosin to distinguish grey and white matter boundaries. […]

Assay [2] shares this test system. Kind of assay: BDA tracing of CST axons in sham-operated animals (no brain injury). Conditions: sham surgery, 4 weeks treatment. How it is done:
In groups treated for four weeks after stroke, animals were re-anesthetized, the infusion needle and pump were removed, and a craniotomy was performed over the uninjured SMA. The anterograde tracer bioti-nylated dextran amine (BDA: Molecular Probes: 10% wt/vol in sterile saline) was injected stereotaxically at depths of 0.5, 1.0, and 2.0 mm below the cortical surface at 18 standardized points distributed over the sensorimotor cortex (70 nl per injection; Nano-ject, Drummond Scientific, Broomall, Pa.). Two weeks later, animals were anesthetized and perfused transcardially with 0.9% saline followed by 4% paraformaldehyde. The brain and spinal cord were dissected and post-fixed overnight in 4% paraformaldehyde, followed by 10% and 30% sucrose solutions over the next few days. Tissue was em-bedded in OCT Tissue Tek Medium (Sakura Finetek USA Inc., CA) and frozen on dry ice. […] Six to ten sections spanning a distance of 1.2 mm were examined and quantified for (a) BDA-labeled axon profiles ≧40 μm in length within the dorsal funiculus on the denervated side of the spinal cord (ipsilateral to the BDA injection and contralateral to the injury); (b) BDA+axons≧40 μm in length in the gray matter of the denervated side of the spinal cord, and (c) BDA+axons≧200 μm in length on the denervated side. […] Average numbers of axons were calculated and converted to axons per mm of spinal cord. […]

The nature of assay [3]: Horizontal (irregular) ladder walk after dorsal hemisection of the spinal cord. Conditions: i.c.v. (50 mM, 0.25 μl/hour) or i.v. (260 mM, 10 μl/hour) for 4 weeks. How it is done: (§1) To test the effects of inosine on spinal cord injury, the dorsal half of the spinal cord in rats was transected, severing the descending CST and other pathways. CST loss severely disrupted fine, skilled behaviors. Inosine was then administered either intra-cerebroventricularly (50 mM, 0.25 μl/hour) or intravenously (260 mM, 10 μl/hour) for 4 weeks. […] Complete transection of the corticospinal tract was verified histologically. The effectiveness of inosine was clinically relevant, since it avoids the risk of intracerebral infection.

The subject of assay [4] is raphespinal fibers and corticospinal tract axons. Kind of assay: Anatomical sprouting of raphespinal and corticospinal tract axons after spinal cord injury. Conditions: after dorsal hemisection. The procedure: as §1
[5] abbreviates: 4 weeks treatment after stroke, vs saline.

“Also recorded” adds a separate entry of the source.

As for `OC[C@H]1O[C@@H](n2cnc3c(O)ncnc32)[C@H](O)[C@@H]1O` [inosine], the “number of synaptic bouton-like structures” value in assay [1] (0.25 mm^2 box spanning Laminae VI and VII, vs saline) is given as “tripled”. In assay [1] (setting [5]), the “increase in number of labeled fibers ≧40 μm in gray matter on the denervated side” value is listed as 2.5 fold and the “increase in number of lengthy axons (>200 μm) in gray matter on the denervated side” value came out at 3.5 fold. Also, in assay [1] (CST axons labeled two weeks after stroke), the “number of BDA-labeled CST fibers, inosine- vs saline-treated” value was “No significant differences”. Also, the “increase in number of CST fibers re-crossing the midline to enter the denervated dorsal funiculus, relative to controls” value in assay [1] (inosine 50 mM infusion 4 weeks after stroke) is “three-fold”. Besides, in assay [1] (inosine combined with NEP1-40), the “number of CST fibers in the denervated dorsal funiculus relative to NEP1-40 alone” value is “did not increase”, the “number of axons >40 μm in the cervical gray matter relative to NEP1-40 alone” value is “strongly increased” and the “number of axons >200 μm in the cervical gray matter relative to NEP1-40 alone” value was “strongly increased”. The “labeled CST axons in spinal grey matter ipsilateral to the labeled hemisphere” value in assay [2] worked out at 77.5±9.0 axons/mm. Besides, in assay [3], the “performance on horizontal ladder walk” value is “enhanced performance; also recorded: far superior to saline-treated controls”. For the same compound, in assay [4], the “long-distance corticospinal tract regeneration” value was “modest effects”, the “sprouting of corticospinal tract axons rostral to the injury site” value is reported as “enhanced the sprouting” and the “sprouting of raphespinal fibers distal to the injury site” value is recorded as “enhanced the sprouting”.
